Experimental data from ChEMBL document CHEMBL2069226, “N-Aryl pyrrolidinonyl oxadiazoles as potent mGluR5 positive allosteric modulators” (Bioorg Med Chem Lett, 2012).
pEC50, pIC50, pKi: −log10 of the molar value. In brackets after ≈: the same amount, converted by molar mass. Blank lines part the entries; values can stand above or below the molecule they belong to.

Assays:
[1] = target: T1, Metabotropic glutamate receptor 5 (Homo sapiens, UniProt P41594); assay: Positive allosteric modulation of human mGluR5 expressed in HEK293A cells assessed as stimulation of glutamate-induced calcium flux by FLIPR method; format: functional, cell-based, HEK293-A; conditions: for Emax: HEK293-A
[2] = target: T1, Metabotropic glutamate receptor 5; assay: Negative allosteric modulation of human mGluR5 expressed in HEK293A cells assessed as inhibition of glutamate-induced calcium flux by FLIPR method; format: functional, cell-based, HEK293-A; conditions: for inhibition: HEK293-A, concentration not given here
[3] = Solubility of the compound in […] by UPLC method; format: physicochemical
Liver [4] = assay: Intrinsic clearance in rat liver; format: ADME, tissue-based
Cytochrome P450 3A4 = Cytochrome P450 3A4 (Homo sapiens, UniProt P08684); assay: Inhibition of CYP3A4; format: ADME
Sequence of Cytochrome P450 3A4 (P08684 whole entry): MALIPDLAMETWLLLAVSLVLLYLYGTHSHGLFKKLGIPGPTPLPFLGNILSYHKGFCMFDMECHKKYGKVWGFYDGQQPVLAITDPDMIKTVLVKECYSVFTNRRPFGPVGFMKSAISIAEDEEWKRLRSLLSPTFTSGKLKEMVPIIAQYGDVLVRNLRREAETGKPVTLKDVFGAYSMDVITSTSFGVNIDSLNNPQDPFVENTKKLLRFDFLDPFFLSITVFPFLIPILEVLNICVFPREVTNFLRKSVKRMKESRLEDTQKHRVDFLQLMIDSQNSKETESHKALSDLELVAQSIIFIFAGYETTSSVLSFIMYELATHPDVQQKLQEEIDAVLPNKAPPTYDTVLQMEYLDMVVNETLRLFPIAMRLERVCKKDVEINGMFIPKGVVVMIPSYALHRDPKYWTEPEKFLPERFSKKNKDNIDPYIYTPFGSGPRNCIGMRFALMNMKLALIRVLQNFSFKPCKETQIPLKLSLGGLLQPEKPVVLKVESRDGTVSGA

Liver [5] = assay: Intrinsic clearance in human liver; format: ADME, tissue-based
Cytochrome P450 2D6 = Cytochrome P450 2D6 (Homo sapiens, UniProt P10635); assay: Inhibition of CYP2D6; format: ADME
Sequence of Cytochrome P450 2D6 (P10635 whole entry): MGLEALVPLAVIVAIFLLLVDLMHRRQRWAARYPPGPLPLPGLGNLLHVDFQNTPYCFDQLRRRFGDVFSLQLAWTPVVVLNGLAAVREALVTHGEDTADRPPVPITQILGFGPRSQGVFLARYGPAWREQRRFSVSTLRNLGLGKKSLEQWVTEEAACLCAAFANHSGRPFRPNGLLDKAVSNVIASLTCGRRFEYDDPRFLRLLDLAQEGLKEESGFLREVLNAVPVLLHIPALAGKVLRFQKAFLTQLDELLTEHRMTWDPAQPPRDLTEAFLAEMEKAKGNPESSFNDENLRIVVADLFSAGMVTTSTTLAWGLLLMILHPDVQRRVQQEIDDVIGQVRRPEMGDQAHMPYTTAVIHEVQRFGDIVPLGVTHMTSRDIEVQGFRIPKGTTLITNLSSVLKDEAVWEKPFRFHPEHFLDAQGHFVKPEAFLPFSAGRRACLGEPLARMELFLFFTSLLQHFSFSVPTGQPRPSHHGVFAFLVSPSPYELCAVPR

Cytochrome P450 2C19 = Cytochrome P450 2C19 (Homo sapiens, UniProt P33261); assay: Inhibition of CYP2C19; format: ADME
Sequence of Cytochrome P450 2C19 (P33261 whole entry): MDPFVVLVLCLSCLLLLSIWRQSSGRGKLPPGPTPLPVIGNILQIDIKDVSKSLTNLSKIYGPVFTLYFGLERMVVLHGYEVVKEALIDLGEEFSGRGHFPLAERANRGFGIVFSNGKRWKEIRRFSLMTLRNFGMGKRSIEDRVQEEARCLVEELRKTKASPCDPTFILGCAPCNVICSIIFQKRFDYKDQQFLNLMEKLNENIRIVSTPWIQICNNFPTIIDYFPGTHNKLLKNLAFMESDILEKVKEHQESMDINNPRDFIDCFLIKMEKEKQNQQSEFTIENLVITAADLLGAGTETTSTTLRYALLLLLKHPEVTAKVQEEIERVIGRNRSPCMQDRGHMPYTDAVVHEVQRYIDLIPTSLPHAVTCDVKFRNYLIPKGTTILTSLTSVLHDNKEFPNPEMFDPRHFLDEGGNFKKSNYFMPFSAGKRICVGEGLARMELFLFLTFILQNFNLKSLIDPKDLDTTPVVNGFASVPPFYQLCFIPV

Cytochrome P450 1A2 = target: T2, Cytochrome P450 1A2 (Homo sapiens, UniProt P05177); assay: Inhibition of CYP1A2; format: ADME
T2 sequence (P05177 whole entry): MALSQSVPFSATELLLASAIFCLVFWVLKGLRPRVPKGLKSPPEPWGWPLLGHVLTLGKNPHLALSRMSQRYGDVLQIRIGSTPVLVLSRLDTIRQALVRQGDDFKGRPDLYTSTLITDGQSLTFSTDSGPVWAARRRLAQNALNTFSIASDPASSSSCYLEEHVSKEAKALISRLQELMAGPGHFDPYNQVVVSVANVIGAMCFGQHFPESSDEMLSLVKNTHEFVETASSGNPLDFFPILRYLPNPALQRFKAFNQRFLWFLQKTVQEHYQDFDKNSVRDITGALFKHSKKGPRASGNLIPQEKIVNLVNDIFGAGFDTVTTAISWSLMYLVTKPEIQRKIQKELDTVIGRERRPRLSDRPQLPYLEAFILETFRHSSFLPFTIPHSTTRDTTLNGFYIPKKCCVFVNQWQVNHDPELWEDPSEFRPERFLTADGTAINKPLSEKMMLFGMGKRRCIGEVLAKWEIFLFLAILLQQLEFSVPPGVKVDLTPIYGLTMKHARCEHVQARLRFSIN

Cytochrome P450 2C9 = Cytochrome P450 2C9 (Homo sapiens, UniProt P11712); assay: Inhibition of CYP2C9; format: ADME
Sequence of Cytochrome P450 2C9 (P11712 whole entry): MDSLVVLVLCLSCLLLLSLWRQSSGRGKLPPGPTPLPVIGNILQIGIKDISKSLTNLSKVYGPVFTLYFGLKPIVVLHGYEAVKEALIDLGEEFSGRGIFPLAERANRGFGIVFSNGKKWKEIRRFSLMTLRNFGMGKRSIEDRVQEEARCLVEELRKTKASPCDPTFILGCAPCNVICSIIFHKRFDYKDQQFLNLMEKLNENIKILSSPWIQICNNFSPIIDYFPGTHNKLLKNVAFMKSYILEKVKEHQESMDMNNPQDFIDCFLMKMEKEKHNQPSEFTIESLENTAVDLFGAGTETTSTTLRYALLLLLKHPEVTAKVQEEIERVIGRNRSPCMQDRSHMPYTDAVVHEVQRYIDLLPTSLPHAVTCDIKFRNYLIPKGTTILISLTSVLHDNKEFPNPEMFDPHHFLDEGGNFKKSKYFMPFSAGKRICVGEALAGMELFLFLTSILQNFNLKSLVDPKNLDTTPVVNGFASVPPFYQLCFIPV

[6] = target: T1, Metabotropic glutamate receptor 5; assay: Displacement of [3H]NAM from mGluR5
Target sequence in this assay (P41594 whole entry): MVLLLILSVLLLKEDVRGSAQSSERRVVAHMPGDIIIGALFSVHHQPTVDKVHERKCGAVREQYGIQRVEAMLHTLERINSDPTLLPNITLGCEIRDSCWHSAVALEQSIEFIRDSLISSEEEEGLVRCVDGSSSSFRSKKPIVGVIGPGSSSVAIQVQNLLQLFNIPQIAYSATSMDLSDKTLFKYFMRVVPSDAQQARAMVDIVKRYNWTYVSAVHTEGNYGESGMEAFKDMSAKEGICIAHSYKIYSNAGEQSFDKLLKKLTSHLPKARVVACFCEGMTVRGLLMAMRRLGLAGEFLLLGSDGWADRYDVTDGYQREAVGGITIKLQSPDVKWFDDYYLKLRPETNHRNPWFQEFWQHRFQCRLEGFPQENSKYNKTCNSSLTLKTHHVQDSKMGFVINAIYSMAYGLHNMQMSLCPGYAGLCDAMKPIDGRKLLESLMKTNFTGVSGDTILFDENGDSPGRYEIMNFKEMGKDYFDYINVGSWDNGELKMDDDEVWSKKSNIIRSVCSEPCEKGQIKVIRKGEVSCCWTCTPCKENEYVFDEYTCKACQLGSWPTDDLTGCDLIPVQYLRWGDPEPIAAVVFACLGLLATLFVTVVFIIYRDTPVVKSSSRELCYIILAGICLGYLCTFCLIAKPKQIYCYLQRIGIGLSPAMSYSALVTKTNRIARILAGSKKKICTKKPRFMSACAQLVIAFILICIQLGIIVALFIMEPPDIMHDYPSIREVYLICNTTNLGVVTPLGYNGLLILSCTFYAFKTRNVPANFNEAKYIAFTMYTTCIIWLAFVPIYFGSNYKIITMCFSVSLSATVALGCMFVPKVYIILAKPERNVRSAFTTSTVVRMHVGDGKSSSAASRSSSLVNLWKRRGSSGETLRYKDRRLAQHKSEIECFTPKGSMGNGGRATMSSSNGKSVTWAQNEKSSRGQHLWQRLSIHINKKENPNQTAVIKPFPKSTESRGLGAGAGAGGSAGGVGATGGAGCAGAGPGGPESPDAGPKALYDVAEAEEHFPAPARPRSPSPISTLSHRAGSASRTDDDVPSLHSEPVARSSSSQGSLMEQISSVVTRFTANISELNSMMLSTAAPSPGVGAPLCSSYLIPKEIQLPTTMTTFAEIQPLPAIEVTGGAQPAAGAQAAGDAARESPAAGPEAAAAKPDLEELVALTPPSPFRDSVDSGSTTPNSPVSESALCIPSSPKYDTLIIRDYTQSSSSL

[7] = Drug uptake in rat brain at 10 mg/kg, ip administered as single dose after 1 hr; format: ADME, organism-based; design: dose 10 mg/kg, route intraperitoneal; conditions: read-out: Drug uptake
[8] = Plasma concentration in rat at 10 mg/kg, ip administered as single dose after 1 hr; format: ADME, organism-based; design: dose 10 mg/kg, route intraperitoneal

SMILES: O=C1CC(c2nc(-c3cccc(Cl)c3)no2)CN1c1ccccc1Cl (stereo unspecified)
pEC50 [1]: < 5.00 | Emax [1]: -31% | pIC50 [2]: 6.17 | inhibition [2]: 93%

SMILES: Cc1ccc(N2CC(c3nc(-c4cccc(C(F)(F)F)c4)no3)CC2=O)cc1 (stereo unspecified)
pEC50 [1]: 5.47 | Emax [1]: 32%

SMILES: Cc1cccc(N2CC(c3nc(-c4cccc(Cl)c4)no3)CC2=O)c1 (stereo unspecified)
pEC50 [1]: < 5.00 | Emax [1]: 28% | pIC50 [2]: 5.64 | inhibition [2]: 85%

SMILES: COc1ccccc1N1CC(c2nc(-c3cccc(Cl)c3)no2)CC1=O (stereo unspecified)
pEC50 [1]: < 5.00 | Emax [1]: -31% | pIC50 [2]: 6.20 | inhibition [2]: 93%

SMILES: O=C1CC(c2nc(-c3cccc(Cl)c3)no2)CN1Cc1ccc(F)cc1 (stereo unspecified)
solubility [3]: 23 µM (≈ 8.55 µg/mL) | pIC50 [2]: 5.44

SMILES: O=C1CC(c2nc(-c3cccc(F)c3)no2)CN1c1ccc(F)cc1 (stereo unspecified)
pEC50 [1]: 7.06 | Emax [1]: 140%

SMILES: Cc1cccc(-c2noc(C3CC(=O)N(c4ccc(F)cc4)C3)n2)c1 (racemic) [listing 1 of 2 here]
Emax [1]: 78%

SMILES: O=C1CC(c2nc(-c3ccccc3)no2)CN1c1ccc(F)cc1 (stereo unspecified)
pEC50 [1]: 7.24 | Emax [1]: 130%

SMILES: O=C1CC(c2nc(-c3ccc(Cl)cc3)no2)CN1c1ccc(Cl)c(Cl)c1 (stereo unspecified)
pEC50 [1]: 5.96 | Emax [1]: 44%

SMILES: COc1cccc(-c2noc(C3CC(=O)N(c4ccc(F)cc4)C3)n2)c1 (stereo unspecified)
pEC50 [1]: 5.96 | Emax [1]: 48%

SMILES: Cc1cccc(-c2noc(C3CC(=O)N(c4ccc(F)cc4)C3)n2)c1 (racemic) [listing 2 of 2 here]
CLH (Liver [4]): 27 mL/min | pIC50 (Cytochrome P450 3A4): < 4.96 | solubility [3]: 2.7 µM (≈ 0.911 µg/mL) | pEC50 [1]: 7.90 | CLH (Liver [5]): 2.7 L/min | pIC50 (Cytochrome P450 2D6): < 4.96 | pIC50 (Cytochrome P450 2C19): < 4.96 | pIC50 (Cytochrome P450 1A2): < 4.96 | pIC50 (Cytochrome P450 2C9): < 4.96

SMILES: COc1ccc(N2CC(c3nc(-c4cccc(Cl)c4)no3)CC2=O)cc1 (stereo unspecified)
pEC50 [1]: < 5.00 | Emax [1]: 47% | pIC50 [2]: 5.45 | inhibition [2]: 2%

SMILES: O=C1CC(c2nc(-c3cccc(Cl)c3)no2)CN1c1ccc(Cl)cc1 (stereo unspecified)
pEC50 [1]: 6.85 | Emax [1]: 67% | pIC50 [2]: < 5.00 | inhibition [2]: 44%

SMILES: O=c1sc2ccccc2n1Cc1nc(-c2cccc(Cl)c2)no1
pEC50 [1]: < 5.00 | Emax [1]: 7% | pIC50 [2]: 5.96 | inhibition [2]: 71%

SMILES: O=C1COc2ccccc2N1CCc1nc(-c2cccc(Cl)c2)no1
pEC50 [1]: < 5.00 | Emax [1]: -29% | pIC50 [2]: 6.10 | inhibition [2]: 88%

SMILES: O=C1CC(c2nc(-c3ccc(F)cc3)no2)CN1c1ccc(Cl)c(Cl)c1 (stereo unspecified)
pEC50 [1]: 5.64 | Emax [1]: 44%

SMILES: O=C1CC(c2nc(Cc3ccccc3)no2)CN1c1ccc(F)cc1 (stereo unspecified)
solubility [3]: 23 µM (≈ 7.76 µg/mL)

SMILES: Cc1cccc(-c2noc(C3CC(=O)N(c4ccc(Cl)cc4)C3)n2)n1 (stereo unspecified)
solubility [3]: 26 µM (≈ 9.22 µg/mL) | pEC50 [1]: < 5.00 | Emax [1]: 1%

SMILES: O=C1COc2ccccc2N1Cc1nc(-c2cccc(Cl)c2)no1
pEC50 [1]: < 5.00 | Emax [1]: -28% | pIC50 [2]: 6.11 | inhibition [2]: 84%

SMILES: O=C1CC(c2nc(-c3cccc(Cl)c3)no2)CN1c1ccc(F)cc1 (single isomer, unassigned; (-))
pEC50 [1]: 8.06 | pKi [6]: 6.82

SMILES: Cc1ccc(N2CC(c3nc(-c4cccc(F)c4)no3)CC2=O)cc1 (stereo unspecified)
pEC50 [1]: 5.92 | Emax [1]: 130%

SMILES: O=C1CC(c2nc(-c3cccc(Cl)c3)no2)CN1c1ccccc1F (stereo unspecified)
pEC50 [1]: < 5.00 | Emax [1]: -29% | pIC50 [2]: 5.96 | inhibition [2]: 89%

SMILES: C[C@H](c1ccccc1)N1C[C@H](c2nc(-c3cccc(Cl)c3)no2)CC1=O
solubility [3]: 23 µM (≈ 8.46 µg/mL) | pIC50 [2]: 5.80

SMILES: CC(C)N1CC(c2nc(-c3cccc(Cl)c3)no2)CC1=O (stereo unspecified)
solubility [3]: 23 µM (≈ 7.03 µg/mL)

Results, then the molecule that gave them:

pEC50 [1]: 6.34 | Emax [1]: 51% | pIC50 [2]: < 5.00 | inhibition [2]: 8.3%
SMILES: O=C1CC(c2nc(-c3cccc(Cl)c3)no2)CN1c1ccc(Cl)c(Cl)c1 (stereo unspecified)

pEC50 [1]: < 5.00 | Emax [1]: -18% | pIC50 [2]: 5.96 | inhibition [2]: 68%
SMILES: O=C1CC(c2nc(-c3cccc(Cl)c3)no2)CN1c1cccc(Cl)c1 (stereo unspecified)

pEC50 [1]: 5.49 | Emax [1]: 140%
SMILES: O=C1CC(c2nc(-c3cccc(F)c3)no2)CN1c1ccc(Cl)c(Cl)c1 (stereo unspecified)

pEC50 [1]: 6.51 | Emax [1]: 57% | pIC50 [2]: < 5.00
SMILES: Cc1ccc(N2CC(c3nc(-c4cccc(Cl)c4)no3)CC2=O)cc1C (stereo unspecified)

Emax [1]: 55%
SMILES: O=C1CC(c2nc(-c3cccc(Cl)c3)no2)CN1c1ccc(F)cc1 (racemic) [listing 1 of 2 here]

pEC50 [1]: < 5.00 | Emax [1]: 25%
SMILES: O=C1CC(c2nc(-c3cccc(C(F)(F)F)c3)no2)CN1c1ccc(F)cc1 (stereo unspecified)

pEC50 [1]: 6.41 | Emax [1]: 65%
SMILES: Cc1cccc(-c2noc(C3CC(=O)N(c4ccc(Cl)c(Cl)c4)C3)n2)c1 (stereo unspecified)

pEC50 [1]: 6.46 | Emax [1]: 42%
SMILES: O=C1CC(c2nc(-c3ccccc3)no2)CN1c1ccccc1 (stereo unspecified)

pEC50 [1]: 5.77 | Emax [1]: 33%
SMILES: O=C1CC(c2nc(-c3ccc(F)cc3)no2)CN1c1ccc(Cl)cc1 (stereo unspecified)

pEC50 [1]: 5.89 | Emax [1]: 150%
SMILES: Cc1ccc(N2CC(c3nc(-c4cccc(C)c4)no3)CC2=O)cc1 (stereo unspecified)

pEC50 [1]: 5.32 | Emax [1]: 50%
SMILES: COc1cccc(-c2noc(C3CC(=O)N(c4ccc(Cl)cc4)C3)n2)c1 (stereo unspecified)

pEC50 [1]: 6.42 | Emax [1]: 41%
SMILES: Cc1ccc(N2CC(c3nc(-c4ccccc4)no3)CC2=O)cc1 (stereo unspecified)

pEC50 [1]: < 5.00 | Emax [1]: -29% | pIC50 [2]: 6.26 | inhibition [2]: 82%
SMILES: O=C1CCc2ccc(Cl)cc2N1CCc1nc(-c2cccc(Cl)c2)no1

solubility [3]: 26 µM (≈ 8.43 µg/mL) | pEC50 [1]: < 5.00 | Emax [1]: -41%
SMILES: O=C1CC(c2nc(-c3ccccn3)no2)CN1c1ccc(F)cc1 (stereo unspecified)

pEC50 [1]: 6.20 | Emax [1]: 120%
SMILES: O=C1CC(c2nc(-c3cccc(F)c3)no2)CN1c1ccc(Cl)cc1 (stereo unspecified)

pEC50 [1]: 6.77 | Emax [1]: 1.6%
SMILES: Cc1cccc(-c2noc(C3CC(=O)N(c4ccc(Cl)cc4)C3)n2)c1 (stereo unspecified)

pEC50 [1]: < 5.00 | Emax [1]: -29% | pIC50 [2]: 6.43 | inhibition [2]: 91%
SMILES: Cc1ccccc1N1CC(c2nc(-c3cccc(Cl)c3)no2)CC1=O (stereo unspecified)

pEC50 [1]: 6.62 | Emax [1]: 90%
SMILES: Cc1cccc(-c2noc(C3CC(=O)N(c4ccc(C)c(Cl)c4)C3)n2)c1 (stereo unspecified)

pEC50 [1]: < 5.00 | Emax [1]: 4% | pIC50 [2]: 5.68 | inhibition [2]: 50%
SMILES: O=c1oc2ccccc2n1Cc1nc(-c2cccc(Cl)c2)no1

solubility [3]: 23 µM (≈ 7.36 µg/mL) | pIC50 [2]: 6.04
SMILES: CC(C)CN1CC(c2nc(-c3cccc(Cl)c3)no2)CC1=O (stereo unspecified)

CLH (Liver [4]): 22 mL/min | concentration at 1 h [7]: 86 ng/g | solubility [3]: 15 µM (≈ 5.37 µg/mL) | pEC50 [1]: 7.97 | CLH (Liver [5]): 0.6 L/min | pKi [6]: 6.39 | pIC50 [2]: < 5.00 | concentration at 1 h [8]: 22 ng/mL
SMILES: O=C1CC(c2nc(-c3cccc(Cl)c3)no2)CN1c1ccc(F)cc1 (racemic) [listing 2 of 2 here]

pEC50 [1]: < 5.00 | Emax [1]: -37% | pIC50 [2]: 6.16 | inhibition [2]: 92%
SMILES: COc1cccc(N2CC(c3nc(-c4cccc(Cl)c4)no3)CC2=O)c1 (stereo unspecified)

solubility [3]: 26 µM (≈ 8.8 µg/mL) | pEC50 [1]: < 5.00 | Emax [1]: -15%
SMILES: Cc1cccc(-c2noc(C3CC(=O)N(c4ccc(F)cc4)C3)n2)n1 (stereo unspecified)

pEC50 [1]: 6.20 | Emax [1]: 69% | pIC50 [2]: < 5.00 | inhibition [2]: -2.5%
SMILES: Cc1ccc(N2CC(c3nc(-c4cccc(Cl)c4)no3)CC2=O)cc1 (stereo unspecified)
